Measurements: patent US5744600A, “Phosphonomethoxy carbocyclic nucleosides and nucleotides” (Institute of Organic Chemistry and Biochemistry of the …, priority 1994, dated 1998)
Values after ≈ are worked out from the molar mass of the structure shown. Where two headings read alike, the source gives them in different places.

Tests used:
[1] = system: herpes simplex virus Type 2 (HSV-2) [G strain]; assay: HSV-2 plaque reduction assay in vero cells; format: cell-based; details: Human alphaherpesvirus 2, Table II, racemic series, 48 hour incubation, read-out: HSV-2 in vitro antiviral activity (IC50)
Procedure: (§1) The antiviral activity of compounds of the invention, against both herpes viruses and human immunodeficiency virus (HIV), are presented in Table II. In Table II, the numbers in parenthesis in the columns reporting HIV activity represent the TD50, that is, the dosage at which toxic effects are observed in 50% of the population of cells tested.
(§2) The compounds were evaluated for antiviral activity in vitro by a standard plaque reduction assay. Experiments were conducted with vero cells (African Green Monkey Kidney cells) infected with herpes simplex virus Type 1 (HSV-1) [BW^s strain, C. D. Sibrack, et al., Infect. Disc., 1982, 146, 673] and herpes simplex virus Type 2 (HSV-2) [G strain, obtained from American Tissue Culture Collection, Rockville, Md.] and with MRC-5 cells (human embryonic lung (diploid) cells) infected with human cytomegalovirus (HCMV) [AD169 strain, obtained from American Tissue Culture Collection, Rockville, Md].
(§3) Briefly, confluent cell monolayers in 24-well plates were infected with 3-50 plaque-forming units of virus in 100 μl of phosphate-buffered saline. After a 1 hour adsorption period, residual inoculum was replaced with 1 mL of the appropriate dilution of the test compound which had been freshly prepared in Eagle's minimal essential medium ("EMEM") containing 10% fetal bovine serum. After a 48 hour incubation period at 37° C. in a 5% CO2 atmosphere, cell monolayers were fixed and stained with Carbol fuchsin and plaques were counted. The antiviral potency of the compound was determined by IC50, the inhibitory concentration necessary to reduce the number of plaques by 50% of those in the virus control cultures.

[2] = system: herpes simplex virus Type 1 (HSV-1) [BW^s strain]; assay: HSV-1 plaque reduction assay in vero cells; format: cell-based; details: Human alphaherpesvirus 1, Table II, racemic series, 48 hour incubation, read-out: HSV-1 in vitro antiviral activity (IC50)
Procedure: as §1, §2, §3

[3] = system: human cytomegalovirus (HCMV) [AD169 strain]; assay: HCMV plaque reduction assay in MRC-5 cells; format: cell-based; details: Human betaherpesvirus 5, AD169, MRC5, Table II, racemic series, 48 hour incubation, read-out: HCMV in vitro antiviral activity (IC50)
Procedure: as §2, §3

[4] = system: Murine leukemia virus (MuLV); assay: MuLV UV-XC plaque assay in SC-1 cells; format: cell-based; details: SC1, Table II, racemic series, read-out: MuLV in vitro antiviral activity (IC50)
Procedure: The compounds were evaluated for antiviral activity against Murine leukemia virus (MuLV) strains using the UV-XC plaque assay (Rowe, et. al., Virology, 42:1136, 1970).
The MuLV strains were grown in fetal mouse cells, (SC-1) and used for antiviral tests using the UV-XC plaque assay. Briefly, SC-1 cells are grown as monolayers in 4-well tissue culture plates and inoculated with approximately 50-100 plaque forming units of MuLV in 0.5 ml of 5% EMEM containing 20 μg/ml DEAE/Dextran. After 1 hr. adsorption, the inoculum is removed and 5 ml of 5% EMEM containing three-fold dilutions of the appropriate drug are added. Five days later, the cultures are UV-irradiated with an ultraviolet lamp and rat XC sarcoma cells are added to the cultures. Three to four days after UV-irradiation, the cell cultures are stained with Giemsa stain and the plaques are counted. Antiviral activity is expressed in terms of the reduction in the mean number of UV-XC plaques counted in the drug treated, virus-infected cultures compared with mean number of plaques counted in untreated, virus-infected control cultures. IC50 values are calculated by determining the concentration of compound necessary to reduce the number of plaques by 50% compared to those in the virus control cultures.

[5] = system: HSV-1 (herpes simplex virus type 1, strain Schooler); assay: HSV-1 plaque inhibition assay in WI-38 cells; format: cell-based; details: Human alphaherpesvirus 1, 96 h, 4 days
Procedure: (§4) Additional assays were performed in cell culture systems to determine the concentrations of compounds that are effective in preventing several kinds of viral infections. In Tables III and IV, the anti-HIV results using CEM cells were obtained using the same protocol described earlier. Figures in parenthesis represent the observed TD50 in the HIV screens indicated. Abbreviations:
(§5) HSV-1 (herpes simplex virus type 1, strain Schooler), HSV-2 (herpes simplex virus type 2, strain 186), VZV (varicella zoster virus, strain ELLEN), HCMV (human cytomegalovirus, strain AD 169 HIV (human immunodeficiency virus, strain HTLV-IIIB).
(§6) Virus was adsorbed to WI-38 cell culture monolayers in 6 well culture plates (Costar, Cambridge, Mass.) for 1 hour prior to addition of maintenance medium containing duplicate dilutions of the test compound. Inhibition of plaque development was evaluated on fixed and stained monolayers after 4 days incubation at 37° C. for HSV-1 and HSV-2, and after 5-7 days incubation at 37° C. for HCMV and VZV. ID50 values were determined from the drug concentration which conferred at least a 50% plaque reduction compared to virus controls.

[6] = system: HSV-2 (herpes simplex virus type 2, strain 186); assay: HSV-2 plaque inhibition assay in WI-38 cells; format: cell-based; details: Human alphaherpesvirus 2, 96 h, 4 days
Procedure: as §4, §5, §6

[7] = system: VZV (varicella zoster virus, strain ELLEN); assay: VZV plaque inhibition assay in WI-38 cells; format: cell-based; details: 5-7 days
Procedure: as §4, §5, §6

[8] = system: HCMV (human cytomegalovirus, strain AD 169); assay: HCMV plaque inhibition assay in WI-38 cells; format: cell-based; details: 5-7 days
Procedure: as §4, §5, §6

murine leukemia L1210 = details: in vitro; Herdewijn, et al., J. Med. Chem. (1985); cited from earlier work
[9] = Herdewijn, et al., J. Med. Chem. (1985); cited from earlier work
[10] = Herdewijn, et al., J. Med. Chem. (1985); cited from earlier work; remark: listed apart in the source
[11] = system: phytopathogenic bacteria and fungi; details: Kusaka, et al., J. Antibiotics, (1968); cited from earlier work
[12] = Table III, racemic series, read-out: HSV-1 in vitro antiviral activity (ID50)
[13] = Table III, racemic series, read-out: HSV-2 in vitro antiviral activity (ID50)
[14] = Human alphaherpesvirus 3, Table III, racemic series, read-out: VZV in vitro antiviral activity (ID50)
[15] = Human betaherpesvirus 5, Table III, racemic series, read-out: HCMV in vitro antiviral activity (ID50)

Structure (SMILES) | IC50 [1] | IC50 [2] | IC50 [3] | IC50 [4] | further results
Nc1nc2c(ncn2C2CC(OCP(=O)(O)O)C(O)C2O)c(=O)[nH]1 (centres unmarked) | > 100 µg/mL | > 100 µg/mL | 4.5 µg/mL (≈ 12.5 µM) | > 100 µg/mL | 
Nc1nc2c(ncn2C2CC(OCP(=O)(O)O)C(O)C2F)c(=O)[nH]1 (centres unmarked) | 22 µg/mL (≈ 60.6 µM) |  | 0.36 µg/mL (≈ 0.991 µM) |  | 
Nc1ncnc2c1ncn2C1CC(OCP(=O)(O)O)C(O)C1O (centres unmarked) | > 100 µg/mL |  | > 100 µg/mL | > 100 µg/mL | 
Cc1cn(C2C=CC(OCP(=O)(O)O)C2)c(=O)[nH]c1=O (centres unmarked) | > 134 µg/mL | > 140 µg/mL |  |  | 
Nc1nc2c(ncn2C2CC(OCP(=O)(O)O)CC2F)c(=O)[nH]1 (centres unmarked) |  |  |  |  | IC50 [5, 12]: 10 to 25 µg/mL (≈ 28.8 to 72 µM); IC50 [6, 13]: 10 to 25 µg/mL (≈ 28.8 to 72 µM); IC50 [7, 14]: 10 to 33 µg/mL (≈ 28.8 to 95 µM); IC50 [8, 15]: 10 to 25 µg/mL (≈ 28.8 to 72 µM)
Nc1ncnc2c1ncn2[C@@H]1C[C@H](CO)[C@@H](O)[C@H]1O [aristeromycin] |  |  |  |  | activity against murine leukemia L1210 (murine leukemia L1210): active; antiviral activity [9]: has antiviral activity; cytotoxicity [10]: cytotoxic; growth inhibitory activity against phytopathogenic bacteria and fungi [11]: growth inhibitory activity
Nc1nc2c(ncn2C2C=CC(OCP(=O)(O)O)C2)c(=O)[nH]1 (centres unmarked) [drawing 15] | > 50 µg/mL | 13.5 µg/mL (≈ 41.3 µM) | > 100 µg/mL | 5.1 µg/mL (≈ 15.6 µM) | 
Nc1ncnc2c1ncn2C1C=CC(OCP(=O)(O)O)C1 (centres unmarked) [drawing 24] | > 82 µg/mL | > 116 µg/mL | > 100 µg/mL | 0.84 µg/mL (≈ 2.7 µM) | 
Nc1ncnc2c1ncn2C1CC(OCP(=O)(O)O)C(O)C1F (centres unmarked) [drawing 27] | > 100 µg/mL |  | 85 µg/mL (≈ 245 µM) |  | 
Nc1nc2c(ncn2C2C=CC(OCP(=O)(O)O)C2)c(=O)[nH]1 (centres unmarked) [drawing 30] |  |  |  |  | IC50 [5, 12]: > 72 µg/mL; IC50 [6, 13]: > 72 µg/mL; IC50 [7, 14]: 12 to 121 µg/mL (≈ 36.7 to 370 µM); IC50 [8, 15]: > 100 µg/mL
Nc1ncnc2c1ncn2C1C=CC(OCP(=O)(O)O)C1 (centres unmarked) [drawing 33] |  |  |  |  | IC50 [5, 12]: > 100 µg/mL; IC50 [6, 13]: > 100 µg/mL; IC50 [7, 14]: > 100 µg/mL; IC50 [8, 15]: > 100 µg/mL
Nc1ncnc2c1ncn2C1CC(OCP(=O)(O)O)C(O)C1F (centres unmarked) [drawing 67] |  |  |  |  | IC50 ([5]; Table IV, enantiomeric series (1R, 4S), read-out: HSV-1 in vitro antiviral data (ID50)): 10 to 25 µg/mL (≈ 28.8 to 72 µM); IC50 ([6]; Table IV, enantiomeric series (1R, 4S), read-out: HSV-2 in vitro antiviral data (ID50)): 10 to 25 µg/mL (≈ 28.8 to 72 µM); IC50 ([7]; Human alphaherpesvirus 3, Table IV, enantiomeric series (1R, 4S), read-out: VZV in vitro antiviral data (ID50)): 5 to 10 µg/mL (≈ 14.4 to 28.8 µM); IC50 ([8]; Human betaherpesvirus 5, Table IV, enantiomeric series (1R, 4S), read-out: HCMV in vitro antiviral data (ID50)): > 100 µg/mL
